The structures appear in SMILES notation.

One series relates to TR1 T-cell clones. In words: T cell response to antigenic stimulus (tritiated thymidine incorporation). The following applies: micellar formulation; GP68-88 or conA; added at start or 24 hours after stimulation; 48 hours. Type of series: cell-based. (Dividing cells build labelled thymidine or BrdU into new DNA.)
Series [1] in a line: Paclitaxel solubility in permeation enhancers. It counts as physicochemical. Conditions: 37° C. On the procedure:
The following permeation enhancers were examined: Transcutol®, ethanol, propylene glycol, isopropyl myristate, oleic acid and Transcutol:isopropyl myristate (9:1 v:v). […] A sample of 0.5 ml of the fluid from each vial was centrifuged at 37° C. and 13000 rpm for 2 minutes. Aliquots (0.1 ml) of supernatant from the centrifuge tubes were transferred to volumetric flasks and diluted with methanol. Paclitaxel content was assessed by high pressure liquid chromatography (HPLC).

The test system of the next series is MS symptoms. In words: Demyelinating DM20 (ND4) transgenic mouse model of MS. It counts as in vivo. Also noted: key to Seizures / Shaking / Hind Limb Paralysis / Head Tremors: 1+: slight but definite signs; 2+: increase in severity; 3+: signs worsened with limited movement; 4+: very severe signs with loss of motor control (moribund). The following applies: micellar paclitaxel 2.5 mg/kg s.c. 3 times per week, 7 injections. The source says: These transgenic mice contain 70 copies of the transgene DM20, a myelin proteolipid. Clinically, the animals appear normal up to 3 months of age. After 3 months, evidence of neurological pathology, such as seizures, shaking, hind limb mobility, unsteadiness of gait, limp tail, wobbly gait and reduction in the degree of activity, appear and progressively increase in severity until the animals die between 6 and 8 months of age.
For both of these sets of experiments, dosing was initiated at the clinical onset of disease (approximately 3 to 4 months of age).
Animals were injected with the first dose once the initial signs of MS had reached a score of 1+ for the symptom categories described. The clinical scores and body weight were determined on each injection day and continued three times a week until the end of the study period (6 months of age). Scoring was based on a 1+ to 4+ system, whereby 1+=slight but definite signs, 2+=increase in severity, 3+=signs worsened with limited movement and 4+=very severe signs with loss of motor control (moribund).
Three additional transgenic mice were used as controls and received an equivalent dose of PBS. […] Furthermore, four normal mice were used as controls and administered equivalent volumes of PBS.

Another series deals with subcutaneous tumors. Kind of series: Subcutaneous tumors in mice treated with paste. Conditions: paclitaxel/gelatin/PCL paste. Type of series: in vivo.
The test system of a further series is neutrophils. Conditions: human, 1 h, 46 µM.
For a further series, the system named is synovial fibroblasts. In words: Synoviocyte proliferation (trypan blue dye exclusion). Conditions: 24 hours.
Where [2] appears, read: transgenic mice, 6 months of age.

Protocol for TR1 T-cell clones: Tritiated thymidine incorporation was determined as a measure of T-cell proliferation in response to peptide or conA stimulation.
Protocol for neutrophils: Neutrophils were prepared from freshly collected human citrated whole blood. Briefly, 400 ml of blood were mixed with 80 ml of 4% dextran T500 (Phamacia LKB, Biotechnology AB Uppsala, Sweden) in HBSS and allowed to settle for 1 hour. Plasma was collected continuously and 5 ml applied to 5 ml of Ficoll Paque (Pharmacia) in 15 ml polypropylene tubes (Corning, N.Y.). Following centrifugation at 500 g for 30 minutes, the neutrophil pellets were washed free of erythrocytes by 20 seconds of hypotonic shock. Neutrophils were resuspended in HBSS, kept on ice and used for experiments within 3 hours. Neutrophil viability and purity was always greater than 90%.
To determine the effect of the anti-microtubule agents on neutrophil viability the release of the cytoplasmic marker enzyme, lactate dehydrogenase (LDH) was measured. Control tubes containing cells with drug (crystals absent) from degranulation experiments were also assayed for LDH.

`CC(=O)O[C@H]1C(=O)[C@@]2(C)[C@H]([C@H](OC(=O)c3ccccc3)[C@]3(O)C[C@H](OC(=O)[C@H](O)[C@@H](NC(=O)c4ccccc4)c4ccccc4)C(C)=C1C3(C)C)[C@]1(OC(C)=O)CO[C@@H]1C[C@@H]2O` [paclitaxel]: the “concentration at which T-cell proliferation was (completely) inhibited” value in the series on TR1 T-cell clones came to 0.02 µM. Also, the “Paclitaxel concentration at saturation, Average” value in series [1] (Ethanol) amounted to 68.91 mg/mL; in series [1] (Isopropyl myristate), 0.43 mg/mL; in series [1] (Oleic acid) it was 0.31 mg/mL; in series [1] (Propylene glycol) it was 21.56 mg/mL; in series [1] (Transcutol), 346.9 mg/mL; in series [1] (Transcutol, listed as Paclitaxel), 346.85 mg/mL. Further, the “Paclitaxel concentration at saturation, Average” value in series [1] (Transcutol:isopropyl myristate (9:1 v:v)) was 353.9 mg/mL; in series [1] (Transcutol:isopropyl myristate (9:1 v:v), listed as Paclitaxel), 353.93 mg/mL. In addition, the “Head Tremors” value with MS symptoms (normal mice) is recorded as 0; in the series on MS symptoms (setting [2]), 1+. Besides, the “Hind Limb Paralysis” value in the series with MS symptoms (normal mice) is reported as 0; in the series with MS symptoms (setting [2]), 1+. For the same compound, the Seizures with MS symptoms (normal mice) is recorded as 0; in the series with MS symptoms (setting [2]) it was 1+. Further, the values for the Shaking with MS symptoms (normal mice) and in the series with MS symptoms (setting [2]) were 0 and 1+, respectively. The “Weight Change” value with MS symptoms (normal mice) was −0-5%; in the series with MS symptoms (transgenic mice), “+5-10%”. In addition, the tumor mass result in the series on subcutaneous tumors is on record as “significantly reduced the tumor mass”. Moreover, in the series on neutrophils, the LDH release entry is on record as “less than 5 % of total”. Besides, the “toxicity to synovial fibroblasts” value in the series with synovial fibroblasts (10^−6 M and 10^−5 M) is reported as “toxic”. The “inhibiting proliferation of the synoviocytes at concentrations as low as” value with synovial fibroblasts is 10^−7 M.

(Values after patent publication US6689803B2, “Compositions and methods for treating surgical adhesions” (Angiotech Pharmaceuticals, Inc., priority 1996, dated 2004).)
